Tests used:
human PiT2 = biological target: T1, human PiT2 (Homo sapiens, UniProt Q08357); test: 33PO4 uptake inhibition in CHO cells expressing human PiT2; format: cell-based; settings: CHO cells transiently expressing human PiT2, pH 6.5
T1 construct: expressed in transfected cells; host or cells: CHO cells, transient transfection with Fugene HD
T1 sequence (Q08357 1-652): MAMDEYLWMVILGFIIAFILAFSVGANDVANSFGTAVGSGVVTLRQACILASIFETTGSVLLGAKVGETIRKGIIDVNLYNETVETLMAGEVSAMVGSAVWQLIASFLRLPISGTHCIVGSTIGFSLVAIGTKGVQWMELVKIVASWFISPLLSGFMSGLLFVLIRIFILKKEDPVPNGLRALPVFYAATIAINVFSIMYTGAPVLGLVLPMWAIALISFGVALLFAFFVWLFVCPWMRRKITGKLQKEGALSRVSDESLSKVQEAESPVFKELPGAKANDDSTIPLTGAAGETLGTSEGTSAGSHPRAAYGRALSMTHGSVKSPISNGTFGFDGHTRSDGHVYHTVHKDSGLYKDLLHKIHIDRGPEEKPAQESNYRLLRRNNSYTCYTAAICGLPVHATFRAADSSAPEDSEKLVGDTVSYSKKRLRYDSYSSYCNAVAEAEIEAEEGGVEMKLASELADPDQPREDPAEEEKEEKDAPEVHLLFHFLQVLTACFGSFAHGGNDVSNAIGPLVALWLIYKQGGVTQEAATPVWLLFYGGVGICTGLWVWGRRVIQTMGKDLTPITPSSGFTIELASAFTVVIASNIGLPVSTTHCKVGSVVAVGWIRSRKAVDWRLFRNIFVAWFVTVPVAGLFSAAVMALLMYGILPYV
Procedure: (§1) For transient expression, human NaPi-IIb expression plasmids, human PiT1 expression plasmids, human PiT2 expression plasmids, and Fugene HD Transfection (Promega Corporation) were added to CHO cells using a 96-well plate, and the plate was incubated in a C02 incubator for 16 hours. The medium was replaced with buffer A (145 mM choline chloride, 3 mM KCl, 1 mM CaCl2), 0.5 mM MgCl2, 5 mM glucose, 5 mM MES, (pH 6.5)), and then replaced with buffer B (145 mM NaCl, 3 mM KCl, 1 mM CaCl2, 0.5 mM MgCl2, 5 mM glucose, 5 mM MES (pH 6.5)) to which a test compound was added at the final concentration of 0.01, 0.03, 0.1, 0.3, 1, 3, 10, or 30 μM, buffer A to which DMSO was added, or buffer B to which DMSO was added. After a certain time, a 1/20 amount of buffer A containing ^33PO4 (PerkinElmer Japan G. K.) was added and reacted at room temperature. After washing with ice-cooled buffer A, a liquid scintillator (MicroScint™-20, item number 6013621, PerkinElmer Japan G.K.) was added, and the ^33PO4 uptake amount was measured with the top count (Top Count NXT, PerkinElmer Japan G.K.). The inhibition rate was determined by the following formula. Here, a certain time was set to 10 minutes. […]

[1] = system: pcy mice (naturally occurring PKD model); test: Suppression of increase in renal volume and decrease in renal function in pcy mice; format: in vivo, mouse; settings: compared to tolvaptan
Procedure: The pcy mice, a naturally occurring PKD model, were used to evaluate the effects of tolvaptan and compound 4 in Test Example 1 on (a) renal volume, (b) blood urea nitrogen (UN) concentration, (c) body weight, and (d) urine volume in pcy mice.
The pcy mice (5 weeks of age at the start of this test) were grouped into 3 groups of 13 mice each. Compound 4 or tolvaptan was administered to each of the test compound administration groups. The administration period was 5 weeks. Compound 4 was administered subcutaneously once daily and tolvaptan was administered subcutaneously at a weekly pace. Compound 4 was administered at 33-40 mg/kg per dose and tolvaptan was administered at 25-30 mg/kg per dose. Compound 4 and tolvaptan were administered after dissolved in 50% DMSO/50% glycerol. A group of mice of the parental line was provided as a normal control group (Normal Control) (N=7). The 50% DMSO/50% glycerol was administered to the normal control group and the Vehicle group of pcy mice at 1 mL/kg.
The left renal volume (renal volume (mL)) of mice was calculated by the following formula using echography 5 weeks after the start of administration of the test compound, as shown in FIG. 3a.
After that, blood was collected from the abdominal vena cava, plasma was collected, and euthanasia treatment was performed. Blood urea nitrogen (UN) concentration (Plasma UN (mg/L)) was measured using L-type Waco UN (Fujifilm Wako Pure Chemical Corporation), as shown in FIG. 3b.
In addition, the body weight (Body weight (g)) of mice was measured every 7 days after the start of administration of the test compound, as shown in FIG. 3c. Furthermore, the volume of urine (Urine volume (mL/day)) was calculated from the specific gravity and measured weight of urine 5 weeks after the start of administration of the test compound, as shown in FIG. 3d.

human PiT1 = biological target: T2, human PiT1 (Homo sapiens, UniProt Q8WUM9); test: 33PO4 uptake inhibition in CHO cells expressing human PiT1; format: cell-based; settings: CHO cells transiently expressing human PiT1, pH 6.5
T2 construct: expressed in transfected cells; host or cells: CHO cells, transient transfection with Fugene HD
T2 sequence (Q8WUM9 1-679): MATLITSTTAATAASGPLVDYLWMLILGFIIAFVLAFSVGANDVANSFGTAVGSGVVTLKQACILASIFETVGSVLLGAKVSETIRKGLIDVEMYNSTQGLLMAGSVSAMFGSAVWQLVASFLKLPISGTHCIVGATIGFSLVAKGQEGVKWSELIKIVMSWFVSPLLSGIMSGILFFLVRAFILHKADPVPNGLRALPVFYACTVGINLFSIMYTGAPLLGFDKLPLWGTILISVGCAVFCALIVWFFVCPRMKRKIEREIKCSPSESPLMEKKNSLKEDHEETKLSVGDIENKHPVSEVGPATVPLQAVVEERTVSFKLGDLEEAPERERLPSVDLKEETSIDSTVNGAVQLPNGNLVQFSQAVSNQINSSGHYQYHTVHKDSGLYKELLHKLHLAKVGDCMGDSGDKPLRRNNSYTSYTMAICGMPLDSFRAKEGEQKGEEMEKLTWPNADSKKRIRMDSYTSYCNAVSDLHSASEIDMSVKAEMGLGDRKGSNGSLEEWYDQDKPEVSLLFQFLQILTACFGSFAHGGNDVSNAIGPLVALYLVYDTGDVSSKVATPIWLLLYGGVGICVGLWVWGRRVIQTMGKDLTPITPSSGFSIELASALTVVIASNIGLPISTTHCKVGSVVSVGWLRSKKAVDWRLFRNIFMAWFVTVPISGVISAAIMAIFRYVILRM
Procedure: as §1

IC50 (human PiT2): > 30 µM | Urine volume ([1]; 5 weeks after start of administration): no increase in urine volume | IC50 (human PiT1): > 30 µM
SMILES: CCCN([C@H]1CC[C@H](C(=O)[O-])CC1)S(=O)(=O)c1cccc(C(=O)Nc2sc3c(c2C(=O)Nc2ccc(CCCc4ccc(C(=O)[O-])cc4)cc2)CCCC3)c1.[Na+].[Na+] [Compound 4, Disodium; 4-[3-[4-[[2-[[3-[(4-carboxylatocyclohexyl)-propylsulfamoyl]benzoyl]ami-no]-4,5,6,7-tetrahydro-1-benzothiophene-3-carbonyl]amino]phenyl]pro-pyl]benzoic acid]
Body weight (weight loss) ([1]; 5 weeks administration): less weight loss | Suppression effect on increase in renal volume ([1]; 33-40 mg/kg s.c. once daily, 5 weeks, left renal volume by echography): same degree of suppression effects | Suppression effect on decrease in renal function (blood urea nitrogen) ([1]; 33-40 mg/kg s.c. once daily, 5 weeks, plasma UN): same degree of suppression effects
